Measured values taken from PubChem BioAssay (NCI).
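Cultured in 96-well plates, cells were exposed to test compound for 48 hours across five concentrations. At the TGI there is no net growth.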 Where a SMILES comes first, the peptide text is derived from it. The star is where a group is joined. Boc = CC(C)(C)OC(=O)*; Bn = c1ccc(C*)cc1

Experiments:
Assay in all cases: NCI-60 cell line screen, 48 h
MCF7 breast = tested on: MCF7 breast
SK-OV-3 ovarian = tested on: SK-OV-3 ovarian
K-562 leukemia = tested on: K-562 leukemia
MALME-3M melanoma = tested on: MALME-3M melanoma
UO-31 renal = tested on: UO-31 renal
TK-10 renal = tested on: TK-10 renal
BT-549 breast = tested on: BT-549 breast
SF-268 CNS = tested on: SF-268 CNS
HS 578T breast = tested on: HS 578T breast
HL-60(TB) leukemia = tested on: HL-60(TB) leukemia

| Compound | TGI (MCF7 breast) [µM] | TGI (SK-OV-3 ovarian) [µM] | TGI (K-562 leukemia) [µM] | TGI (MALME-3M melanoma) [µM] | TGI (UO-31 renal) [µM] | TGI (TK-10 renal) [µM] | TGI (BT-549 breast) [µM] | TGI (SF-268 CNS) [µM] | TGI (HS 578T breast) [µM] | TGI (HL-60(TB) leukemia) [µM] |
| --- | --- | --- | --- | --- | --- | --- | --- | --- | --- | --- |
| CO/N=C(\C(=O)OC(=NC1CCCCC1)NC1CCCCC1)c1csc(NC(c2ccccc2)(c2ccccc2)c2ccccc2)n1 | > 10 | > 10 | > 10 | > 10 | > 10 | > 10 | > 10 | > 10 | > 10 | > 10 |
| CCn1c(-c2ccccc2)cs/c1=N\C(P(=O)(O)O)P(=O)(O)O | > 100 | > 100 | > 100 | > 100 | > 100 | > 100 | > 100 | > 100 | > 100 | > 100 |
| CCOC(=O)CCC(NC(=O)Cc1ccc(Nc2nc3cc(F)c(F)cc3nc2C(=O)OCC)cc1)C(=O)OCC (stereo not given) | > 100 | > 100 | > 100 | > 100 | > 100 | > 100 | > 100 | > 100 | > 100 | 50 |
| CC(=O)c1ccccc1NP(=O)(c1ccccc1)c1ccccc1 | > 100 | 60.8 | > 100 | > 100 | > 100 | > 100 | > 100 | > 100 | > 100 | 87.7 |
| O=C1C2SC34c5c2c2ccccc2n5CCC3CCCN14 (stereo not given) | > 100 | > 100 | > 100 | > 100 | > 100 | 87 | > 100 | > 100 | > 100 | > 100 |
| CN(C)c1ccc(/C=c2/c3ccccc3n3c2c2c([n+]3C)CCCC2)cc1 | 0.321 | 2.07 | 2.85 | 0.866 | 6.5 | 1.55 | 2.19 | 1.6 | 7.21 | 0.363 |
| CN=C(n1ccnc1)n1ccnc1 | > 100 | > 100 | > 100 | > 100 | > 100 | > 100 | > 100 | > 100 | > 100 | > 100 |
| O=C(Nc1ccccc1)c1cc(S(=O)(=O)NC2=NC(c3ccccc3)c3cc(Cl)ccc3N2)c(SSc2cc(Cl)c(C(=O)Nc3ccccc3)cc2S(=O)(=O)NC2=NC(c3ccccc3)c3cc(Cl)ccc3N2)cc1Cl (stereo not given) | > 100 | > 100 | > 100 | > 100 | > 100 | > 100 | > 100 | > 100 | > 100 | > 53.9 |
| COC(=O)C(CC(C)C)NC(=O)C(C)NC(=O)C(Cc1ccc(OCc2ccccc2)cc1)NC(=O)C(COCc1ccccc1)NC(=O)OC(C)(C)C (stereo not given) (Boc-S(Bn)Y(Bn)AL-OMe; configuration not given here) | > 100 | > 100 | > 100 | > 100 | > 100 | > 100 | > 100 | > 100 | > 100 | > 100 |
| O=C1c2ccccc2C(=O)c2c(NCC(O)CO)ccc(NCC(O)CO)c21 (stereo not given) | > 100 | > 100 | > 100 | > 100 | 71.2 | > 100 | > 100 | > 100 | > 100 | > 100 |
| Cc1ccc(-n2cnc(C(=N)C#N)c2N)cc1 | > 100 | > 100 | > 100 | > 100 | > 100 | > 100 | > 100 | > 100 | > 100 | > 100 |
| Cc1[nH]c(=O)nc2nc3ccc(Cl)cc3c(NCCNCCO)c12 | 26.6 | 23.9 | > 100 | 28.5 | 20.7 | 33.1 | 30.5 | 27.9 | 31.8 | > 100 |
| CO/N=C(\C)c1ccc(Nc2nc3ccccc3c3occc23)cc1 | 31 | 29.5 | 50.7 | 28.3 | 35.9 | 25.4 | 31 | 32.5 | 30.7 | 50.4 |
| O=[N+]([O-])c1ccc(CN(CCCl)OCCCl)cc1 | > 100 | > 100 | > 100 | > 100 | > 100 | > 100 | > 100 | > 100 | > 100 | > 100 |
| COC(=O)C1=C(OC(=O)/C(=C/c2ccc(Cl)cc2)c2ccc(Cl)cc2)C(C(=O)OC)[C@@]2(O)[C@@H](C(=O)OC)[C@H](C)C[C@@H]1[C@@H]2C(=O)OC (stereo not given in full) | > 100 | > 100 | > 100 | > 100 | > 100 | > 100 | > 100 | > 100 | > 100 | > 100 |
| CN1CCc2c([nH]c3ccccc23)C1 | > 100 | > 100 | > 100 | 86.8 | > 100 | > 100 | > 100 | > 100 | > 100 | > 100 |
| CC1(C)OC(C(=O)Nc2cc3c4ccccc4ccc3c3ccccc23)C(C(=O)N2CCCCC2)O1 (stereo not given) | > 29.7 | > 100 | > 100 | > 100 | > 100 | > 100 | > 100 | > 100 | > 96.6 | > 100 |
